From ChEMBL document CHEMBL1128849, “Synthesis and antibacterial activity of men 10700, a new penem antibiotic” (1995)
Values after ≈ are worked out from the molar mass of the structure shown.

Assays:
[1] = test system: Listeria monocytogenes; assay: In vitro antibacterial activity against Listeria monocytogenes; assay type: functional
[2] = test system: Yersinia sp.; assay: In vitro antibacterial activity against Yersinia species; assay type: functional, yersinia spp; conditions: Yersinia sp. (in: enterobacteria)
[3] = test system: Staphylococcus epidermidis; assay: In vitro antibacterial activity against Staphylococcus epidermidis; assay type: functional
[4] = test system: Staphylococcus aureus; assay: In vitro antibacterial activity against Staphylococcus aureus MR; assay type: functional
[5] = test system: Streptococcus pneumoniae; assay: In vitro antibacterial activity against Streptococcus pneumoniae; assay type: functional
[6] = test system: Klebsiella pneumoniae; assay: In vitro antibacterial activity against Klebsiella pneumoniae; assay type: functional
[7] = test system: Enterococcus faecalis; assay: In vitro antibacterial activity against Enterococcus faecalis; assay type: functional
[8] = test system: Streptococcus agalactiae; assay: In vitro antibacterial activity against Streptococcus agalactiae B; assay type: functional
[9] = test system: Haemophilus influenzae; assay: In vitro antibacterial activity against Haemophilus influenzae; assay type: functional
[10] = test system: Aeromonas sp.; assay: In vitro antibacterial activity against Aeromonas species.; assay type: functional
[11] = test system: Staphylococcus aureus; assay: In vitro antibacterial activity against Staphylococcus aureus MS; assay type: functional
[12] = test system: Clostridium perfringens; assay: In vitro antibacterial activity against Clostridium perfringens; assay type: functional
[13] = test system: Streptococcus pyogenes; assay: In vitro antibacterial activity against Streptococcus pyogenes A; assay type: functional
[14] = test system: Moraxella catarrhalis; assay: In vitro antibacterial activity against Branhamella catarrhalis; assay type: functional
[15] = test system: Bacteroides fragilis; assay: In vitro antibacterial activity against Bacteroides fragilis; assay type: functional
[16] = test system: Enterococcus faecium; assay: In vitro antibacterial activity against Enterococcus faecium; assay type: functional
[17] = test system: Escherichia coli; assay: In vitro antibacterial activity against Escherichia. coli L; assay type: functional
[18] = test system: Staphylococcus aureus; assay: In vitro antibacterial activity against Staphylococcus aureus MR13; assay type: functional
[19] = test system: Escherichia coli; assay: In vitro antibacterial activity against Escherichia. coli SHV; assay type: functional
[20] = test system: Escherichia coli; assay: In vitro antibacterial activity against Escherichia. coli ATCC 25922; assay type: functional
[21] = test system: Pseudomonas aeruginosa; assay: In vitro antibacterial activity against Pseudomonas aeruginosa G242; assay type: functional
[22] = test system: Escherichia coli; assay: In vitro antibacterial activity against Escherichia. coli DC2; assay type: functional
[23] = test system: Enterococcus faecalis; assay: In vitro antibacterial activity against Enterococcus faecalis ATCC 29212; assay type: functional
[24] = test system: Pseudomonas aeruginosa; assay: In vitro antibacterial activity against Pseudomonas aeruginosa ATCC 27853; assay type: functional
[25] = test system: Pseudomonas aeruginosa; assay: In vitro antibacterial activity against Pseudomonas aeruginosa VR5; assay type: functional
[26] = test system: Staphylococcus aureus; assay: In vitro antibacterial activity against Staphylococcus aureus ATCC 25923; assay type: functional
[27] = test system: Escherichia coli; assay: In vitro antibacterial activity against Escherichia. coli TEM1; assay type: functional
[28] = test system: Escherichia coli; assay: In vitro antibacterial activity against Escherichia. coli TEM2; assay type: functional
[29] = test system: Staphylococcus aureus; assay: In vitro antibacterial activity against Staphylococcus aureus ATCC 29213; assay type: functional
[30] = test system: Staphylococcus aureus; assay: In vitro antibacterial activity against Staphylococcus aureus MR09; assay type: functional

Structure (SMILES): CC1(C)S[C@@H]2[C@H](NC(=O)[C@H](N)c3ccc(O)cc3)C(=O)N2[C@H]1C(=O)O [AMOXICILLIN]
- MIC90 [1]: 0.5 µg/mL (≈ 1.37 µM)
- MIC90 [2]: > 64 µg/mL
- MIC90 [3]: 4 µg/mL (≈ 10.9 µM)
- MIC90 [4]: > 32 µg/mL
- MIC90 [5]: 0.015 µg/mL (≈ 0.041 µM)
- MIC90 [6]: > 64 µg/mL
- MIC90 [7]: 0.5 µg/mL (≈ 1.37 µM)
- MIC90 [8]: 0.06 µg/mL (≈ 0.164 µM)
- MIC90 [9]: 1 µg/mL (≈ 2.74 µM)
- MIC90 [10]: > 32 µg/mL
- MIC90 [11]: 1 µg/mL (≈ 2.74 µM)
- MIC90 [12]: 0.06 µg/mL (≈ 0.164 µM)
- MIC90 [13]: 0.015 µg/mL (≈ 0.041 µM)
- MIC90 [14]: 2 µg/mL (≈ 5.47 µM)
- MIC90 [15]: 32 µg/mL (≈ 87.6 µM)
- MIC90 [16]: 32 µg/mL (≈ 87.6 µM)

Structure (SMILES): C[C@@H](O)[C@H]1C(=O)N2C(C(=O)O)=C(COC(N)=O)S[C@H]12 [RITIPENEM]
- MIC [17]: 1 µg/mL (≈ 3.47 µM)
- MIC [18]: 0.12 µg/mL (≈ 0.416 µM)
- MIC [19]: 1 µg/mL (≈ 3.47 µM)
- MIC [20]: 0.5 µg/mL (≈ 1.73 µM)
- MIC [21]: 1 µg/mL (≈ 3.47 µM)
- MIC [22]: 1 µg/mL (≈ 3.47 µM)
- MIC [23]: 2 µg/mL (≈ 6.94 µM)
- MIC [24]: > 32 µg/mL
- MIC [25]: 0.5 µg/mL (≈ 1.73 µM)
- MIC [26]: 0.06 µg/mL (≈ 0.208 µM)
- MIC [27]: 1 µg/mL (≈ 3.47 µM)
- MIC [28]: 1 µg/mL (≈ 3.47 µM)
- MIC [29]: 0.12 µg/mL (≈ 0.416 µM)
- MIC [30]: 2 µg/mL (≈ 6.94 µM)

Structure (SMILES): C[C@@H](O)[C@H]1C(=O)N2C(C(=O)O)=C(CSC(=S)N(C)CC(N)=O)SC12 (stereo partly drawn)
- MIC [17]: 16 µg/mL (≈ 40.9 µM)
- MIC [18]: 0.03 µg/mL (≈ 0.0766 µM)
- MIC [19]: 16 µg/mL (≈ 40.9 µM)
- MIC [20]: 8 µg/mL (≈ 20.4 µM)
- MIC [21]: 8 µg/mL (≈ 20.4 µM)
- MIC [22]: 0.5 µg/mL (≈ 1.28 µM)
- MIC [23]: 8 µg/mL (≈ 20.4 µM)
- MIC [24]: > 32 µg/mL
- MIC [25]: 4 µg/mL (≈ 10.2 µM)
- MIC [26]: 0.12 µg/mL (≈ 0.307 µM)
- MIC [27]: 8 µg/mL (≈ 20.4 µM)
- MIC [28]: 8 µg/mL (≈ 20.4 µM)
- MIC [29]: 0.12 µg/mL (≈ 0.307 µM)
- MIC [30]: 2 µg/mL (≈ 5.11 µM)

Structure (SMILES): CCCCOC(=O)CN(C)CC1=C(C(=O)O)N2C(=O)[C@H]([C@@H](C)O)C2S1 (stereo partly drawn)
- MIC [17]: > 32 µg/mL
- MIC [18]: 0.5 µg/mL (≈ 1.34 µM)
- MIC [19]: > 32 µg/mL
- MIC [20]: 32 µg/mL (≈ 85.9 µM)
- MIC [21]: > 32 µg/mL
- MIC [22]: 1 µg/mL (≈ 2.68 µM)
- MIC [23]: 8 µg/mL (≈ 21.5 µM)
- MIC [24]: > 32 µg/mL
- MIC [25]: > 32 µg/mL
- MIC [26]: 0.25 µg/mL (≈ 0.671 µM)
- MIC [27]: > 32 µg/mL
- MIC [28]: > 32 µg/mL
- MIC [29]: 0.5 µg/mL (≈ 1.34 µM)
- MIC [30]: 16 µg/mL (≈ 43 µM)
